Data as given in patent publication US8889874B2, “Imidazolone-chalcone derivatives as potential anticancer agent and process for the preparation thereof” (Council of Scientific and Industrial Research, priority 2010, dated 2014).
Read-outs that look alike come from different tables or passages of the source.

How the values were obtained:
Experiment in all cases: NCI anticancer screen, SRB assay, 48 h
Format in all cases: cell-based, human
HT29 (colon) = conditions: Homo sapiens
Procedure, shortened: (§1)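 Sulforhodamine B protein assay read cell growth after 48 h of continuous compound exposure. Dose-response curves per cell line used at least five 10-fold-diluted concentrations, within a panel of fifty-three human lines from nine tumour types.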

SNB-19 (CNS) = conditions: Homo sapiens
Procedure, shortened: as §1

HCC-2998 (colon) = conditions: Homo sapiens
Procedure, shortened: as §1

MALME-3M (melanoma) = conditions: Homo sapiens
Procedure, shortened: as §1

[1] = system: EKVX (non-small cell lung); conditions: Homo sapiens
Procedure, shortened: as §1

[2] = system: NCI-H322M (non-small cell lung); conditions: Homo sapiens
Procedure, shortened: as §1

KM12 (colon) = conditions: Homo sapiens
Procedure, shortened: as §1

HS 578T (breast) = conditions: Homo sapiens
Procedure, shortened: as §1

786-0 (renal) = conditions: Homo sapiens
Procedure, shortened: as §1

PC-3 (prostate) = conditions: Homo sapiens
Procedure, shortened: as §1

OVCAR-8 (ovarian) = conditions: Homo sapiens
Procedure, shortened: as §1

COLO 205 (colon) = conditions: Homo sapiens, COLO 205
Procedure, shortened: as §1

LOX IMVI (melanoma) = conditions: Homo sapiens
Procedure, shortened: as §1

MDA-MB-231/ATCC (breast) = conditions: Homo sapiens
Procedure, shortened: as §1

CAKI-1 (renal) = conditions: Homo sapiens
Procedure, shortened: as §1

[3] = system: RPMI-8226 (leukemia cell line); conditions: Homo sapiens
Procedure, shortened: as §1

[4] = system: HOP-92 (non-small cell lung); conditions: Homo sapiens
Procedure, shortened: as §1

MDA-MB-435 (melanoma) = conditions: Homo sapiens
Procedure, shortened: as §1

[5] = system: NCI-H226 (non-small cell lung); conditions: Homo sapiens
Procedure, shortened: as §1

MCF7 (breast) = conditions: Homo sapiens
Procedure, shortened: as §1

UACC-257 (melanoma) = conditions: Homo sapiens
Procedure, shortened: as §1

SN12C (renal) = conditions: Homo sapiens, SN12C
Procedure, shortened: as §1

[6] = system: HOP-62 (non-small cell lung); conditions: Homo sapiens
Procedure, shortened: as §1

[7] = system: NCI-H23 (non-small cell lung); conditions: Homo sapiens
Procedure, shortened: as §1

SNB-75 (CNS) = conditions: Homo sapiens
Procedure, shortened: as §1

OVCAR-5 (ovarian) = conditions: Homo sapiens
Procedure, shortened: as §1

A498 (renal) = conditions: Homo sapiens
Procedure, shortened: as §1

ACHN (renal) = conditions: Homo sapiens
Procedure, shortened: as §1

TK-10 (renal) = conditions: Homo sapiens
Procedure, shortened: as §1

[8] = system: K-562 (leukemia cell line); conditions: Homo sapiens
Procedure, shortened: as §1

U251 (CNS) = conditions: Homo sapiens
Procedure, shortened: as §1

OVCAR-4 (ovarian) = conditions: Homo sapiens
Procedure, shortened: as §1

HCT-15 (colon) = conditions: Homo sapiens
Procedure, shortened: as §1

NCI/ADR-RES (ovarian) = conditions: Homo sapiens, NCI/ADR-RES
Procedure, shortened: as §1

SK-MEL-5 (melanoma) = conditions: Homo sapiens
Procedure, shortened: as §1

[9] = system: A549/ATCC (non-small cell lung); conditions: Homo sapiens
Procedure, shortened: as §1

[10] = HT-29, 48 h exposure, SRB, read-out: GI50
[11] = HT-29, read-out: pGI50 (-log of molar concentration causing 50% inhibition of net cell growth) (converted)
[12] = 48 h exposure, SRB, read-out: GI50
[13] = read-out: pGI50 (-log of molar concentration causing 50% inhibition of net cell growth) (converted)
[14] = Malme-3M, read-out: pGI50 (-log of molar concentration causing 50% inhibition of net cell growth) (converted)
[15] = MALME-3M, 48 h exposure, SRB, read-out: GI50
[16] = PC-3, read-out: pGI50 (-log of molar concentration causing 50% inhibition of net cell growth) (converted)
[17] = one prostate cancer cell line (PC-3), exposure at least 48 hrs, read-out: GI50
[18] = COLO205, read-out: pGI50 (-log of molar concentration causing 50% inhibition of net cell growth) (converted)
[19] = SN 12C, read-out: pGI50 (-log of molar concentration causing 50% inhibition of net cell growth) (converted)
[20] = K562, 48 h exposure, SRB, read-out: GI50
[21] = K562, read-out: pGI50 (-log of molar concentration causing 50% inhibition of net cell growth) (converted)
[22] = U-251, 48 h exposure, SRB, read-out: GI50
[23] = U-251, read-out: pGI50 (-log of molar concentration causing 50% inhibition of net cell growth) (converted)
[24] = NCl/ADR-RES, 48 h exposure, SRB, read-out: GI50

COc1cc(/C=C/C(=O)c2cccc(-n3cc(-c4ccc(Cl)cc4)[nH]c3=O)c2)ccc1O [3f, 4-(4-chlorophenyl)-1-3-[(E)-3-(4-hydroxy-3-methoxyphenyl)-2-propenoyl]phenyl-2,3-dihydro-1H-2-imidazolone]
GI50 (HT29 (colon); [10]): 2970 nM
GI50 (HT29 (colon); [11]): 2950 nM
GI50 (SNB-19 (CNS); [12]): 3170 nM
GI50 (SNB-19 (CNS); [13]): 3160 nM
GI50 (HCC-2998 (colon); [12]): 1850 nM
GI50 (HCC-2998 (colon); [13]): 1860 nM
GI50 (MALME-3M (melanoma); [14]): 3090 nM
GI50 (MALME-3M (melanoma); [15]): 3060 nM
GI50 [1, 12]: 9610 nM
GI50 [1, 13]: 9550 nM
GI50 [2, 12]: 4580 nM
GI50 [2, 13]: 4570 nM
GI50 (KM12 (colon); [12]): 1480 nM
GI50 (KM12 (colon); [13]): 1480 nM
GI50 (HS 578T (breast); [12]): 4670 nM
GI50 (HS 578T (breast); [13]): 4680 nM
GI50 (786-0 (renal); [12]): 2070 nM
GI50 (786-0 (renal); [13]): 2090 nM
GI50 (PC-3 (prostate); [16]): 1950 nM
GI50 (PC-3 (prostate); [17]): 1950 nM
GI50 (OVCAR-8 (ovarian); [12]): 4180 nM
GI50 (OVCAR-8 (ovarian); [13]): 4170 nM
GI50 (COLO 205 (colon); [18]): 3390 nM
GI50 (COLO 205 (colon); [12]): 3400 nM
GI50 (LOX IMVI (melanoma); [12]): 1630 nM
GI50 (LOX IMVI (melanoma); [13]): 1620 nM
GI50 (MDA-MB-231/ATCC (breast); [12]): 3870 nM
GI50 (MDA-MB-231/ATCC (breast); [13]): 3890 nM
GI50 (CAKI-1 (renal); [12]): 2640 nM
GI50 (CAKI-1 (renal); [13]): 2630 nM
GI50 [3, 12]: 1330 nM
GI50 [3, 13]: 1320 nM
GI50 [4, 12]: 1260 nM
GI50 [4, 13]: 1260 nM
GI50 (MDA-MB-435 (melanoma); [12]): 2250 nM
GI50 (MDA-MB-435 (melanoma); [13]): 2240 nM
GI50 [5, 12]: 2770 nM
GI50 [5, 13]: 2750 nM
GI50 (MCF7 (breast); [12]): 2300 nM
GI50 (MCF7 (breast); [13]): 2290 nM
GI50 (UACC-257 (melanoma); [12]): 8690 nM
GI50 (UACC-257 (melanoma); [13]): 8710 nM
GI50 (SN12C (renal); [19]): 2880 nM
GI50 (SN12C (renal); [12]): 2870 nM
GI50 [6, 12]: 2840 nM
GI50 [6, 13]: 2820 nM
GI50 [7, 12]: 3180 nM
GI50 [7, 13]: 3160 nM
GI50 (SNB-75 (CNS); [12]): 2750 nM
GI50 (SNB-75 (CNS); [13]): 2750 nM
GI50 (OVCAR-5 (ovarian); [12]): 2000 nM
GI50 (OVCAR-5 (ovarian); [13]): 2000 nM
GI50 (A498 (renal); [12]): 2820 nM
GI50 (A498 (renal); [13]): 2820 nM
GI50 (ACHN (renal); [12]): 2190 nM
GI50 (ACHN (renal); [13]): 2190 nM
GI50 (TK-10 (renal); [12]): 4670 nM
GI50 (TK-10 (renal); [13]): 4680 nM
GI50 [8, 20]: 1420 nM
GI50 [8, 21]: 1410 nM
GI50 (U251 (CNS); [22]): 2230 nM
GI50 (U251 (CNS); [23]): 2240 nM
GI50 (OVCAR-4 (ovarian); [12]): 4640 nM
GI50 (OVCAR-4 (ovarian); [13]): 4680 nM
GI50 (HCT-15 (colon); [12]): 1800 nM
GI50 (HCT-15 (colon); [13]): 1820 nM
GI50 (NCI/ADR-RES (ovarian); [24]): 2280 nM
GI50 (NCI/ADR-RES (ovarian); [13]): 2290 nM
GI50 (SK-MEL-5 (melanoma); [12]): 1800 nM
GI50 (SK-MEL-5 (melanoma); [13]): 1820 nM
GI50 [9, 12]: 6780 nM
GI50 [9, 13]: 6760 nM

COc1cc(/C=C/C(=O)c2cccc(-n3cc(-c4ccccc4)[nH]c3=O)c2)cc(OC)c1OC [5a, 4-phenyl-1-3-[(E)-3-(3,4,5-trimethoxyphenyl)-2-propenoyl]phenyl-2,3-dihydro-1H-2-imidazolone]
GI50 (HT29 (colon); [10]): 660 nM
GI50 (HT29 (colon); [11]): 661 nM
GI50 (SNB-19 (CNS); [12]): 2350 nM
GI50 (SNB-19 (CNS); [13]): 2340 nM
GI50 (HCC-2998 (colon); [12]): 1260 nM
GI50 (HCC-2998 (colon); [13]): 1260 nM
GI50 (MALME-3M (melanoma); [14]): 1320 nM
GI50 (MALME-3M (melanoma); [15]): 1310 nM
GI50 [1, 12]: 2300 nM
GI50 [1, 13]: 2290 nM
GI50 [2, 12]: 2020 nM
GI50 [2, 13]: 2040 nM
GI50 (KM12 (colon); [12]): 1370 nM
GI50 (KM12 (colon); [13]): 1380 nM
GI50 (HS 578T (breast); [12]): 3410 nM
GI50 (HS 578T (breast); [13]): 3390 nM
GI50 (786-0 (renal); [12]): 1380 nM
GI50 (786-0 (renal); [13]): 1380 nM
GI50 (PC-3 (prostate); [16]): 3240 nM
GI50 (PC-3 (prostate); [17]): 3260 nM
GI50 (OVCAR-8 (ovarian); [12]): 1620 nM
GI50 (OVCAR-8 (ovarian); [13]): 1620 nM
GI50 (COLO 205 (colon); [18]): 1510 nM
GI50 (COLO 205 (colon); [12]): 1510 nM
GI50 (LOX IMVI (melanoma); [12]): 480 nM
GI50 (LOX IMVI (melanoma); [13]): 479 nM
GI50 (MDA-MB-231/ATCC (breast); [12]): 2170 nM
GI50 (MDA-MB-231/ATCC (breast); [13]): 2190 nM
GI50 (CAKI-1 (renal); [12]): 1750 nM
GI50 (CAKI-1 (renal); [13]): 1740 nM
GI50 [3, 12]: 620 nM
GI50 [3, 13]: 617 nM
GI50 [4, 12]: 10800 nM
GI50 [4, 13]: 10700 nM
GI50 (MDA-MB-435 (melanoma); [12]): 1200 nM
GI50 (MDA-MB-435 (melanoma); [13]): 1200 nM
GI50 [5, 12]: 14600 nM
GI50 [5, 13]: 14500 nM
GI50 (MCF7 (breast); [12]): 310 nM
GI50 (MCF7 (breast); [13]): 309 nM
GI50 (UACC-257 (melanoma); [12]): 1520 nM
GI50 (UACC-257 (melanoma); [13]): 1510 nM
GI50 (SN12C (renal); [19]): 2090 nM
GI50 (SN12C (renal); [12]): 2090 nM
GI50 [6, 12]: 4120 nM
GI50 [6, 13]: 4070 nM
GI50 [7, 12]: 1430 nM
GI50 [7, 13]: 1450 nM
GI50 (SNB-75 (CNS); [12]): 4470 nM
GI50 (SNB-75 (CNS); [13]): 4470 nM
GI50 (OVCAR-5 (ovarian); [12]): 1880 nM
GI50 (OVCAR-5 (ovarian); [13]): 1860 nM
GI50 (A498 (renal); [12]): 2650 nM
GI50 (A498 (renal); [13]): 2630 nM
GI50 (ACHN (renal); [12]): 1600 nM
GI50 (ACHN (renal); [13]): 1580 nM
GI50 (TK-10 (renal); [12]): 3020 nM
GI50 (TK-10 (renal); [13]): 3020 nM
GI50 [8, 20]: 500 nM
GI50 [8, 21]: 501 nM
GI50 (U251 (CNS); [22]): 630 nM
GI50 (U251 (CNS); [23]): 631 nM
GI50 (OVCAR-4 (ovarian); [12]): 1880 nM
GI50 (OVCAR-4 (ovarian); [13]): 1860 nM
GI50 (HCT-15 (colon); [12]): 1130 nM
GI50 (HCT-15 (colon); [13]): 1120 nM
GI50 (NCI/ADR-RES (ovarian); [24]): 1100 nM
GI50 (NCI/ADR-RES (ovarian); [13]): 1100 nM
GI50 (SK-MEL-5 (melanoma); [12]): 1400 nM
GI50 (SK-MEL-5 (melanoma); [13]): 1410 nM
GI50 [9, 12]: 4030 nM
GI50 [9, 13]: 4070 nM
